Test results as given in patent US20130012506A1 (priority 2010, published 2013).
Converted amounts (≈) assume the structure as drawn. Like-named read-outs stand apart in the source and are kept apart here.

Legend:
[1] = test system: M. tuberculosis H37Rv-GFP inside Raw264.7 macrophages; assay: microbe, parasite or virus in culture; details: Mycobacterium tuberculosis, 120 h, read-out: minimal inhibitory concentration (MIC)
[2] = test system: M. tuberculosis H37Rv-GFP; assay: microbe, parasite or virus in culture; details: Mycobacterium tuberculosis, read-out: minimal inhibitory concentration (MIC)
[3] = test system: M. tuberculosis H37Rv-GFP inside Raw264.7 macrophages
M. tuberculosis H37Rv [4] = assay: Bacteria killing activity by CFU counting, aerobic incubation; assay type: cell-based, Mycobacterium tuberculosis
Description: FIG. 8 illustrates the colony forming units (CFUs) recovered from macrophages at different time points after infection with M. tuberculosis H37Rv. Cells were infected and treated with the indicated amount of pyridopyrimidione compound 71 (4 to 20 μM);
The bacteria killing activity of compound 71 was determined using the CFU counting method. Two-fold serial dilutions of compound 71 were incubated aerobically with H37Rv for 21 days at 37° C.

[5] = test system: seven cell lines derived from different body tissue; assay: Cytotoxicity assay on a panel of seven cell lines; assay type: cell-based; details: all tested cell lines, 5 days of co-incubation
Description: (§1) In order to address compound toxicity, seven cell lines originating from different body tissues were cultivated in the presence of 3-fold dilutions of compounds starting from 100 μM. After 5 days of culture, cell viability was assessed by the resazurin test. Briefly, cells were incubated with 10 μg/mL of resazurin (Sigma-Aldrich St. Louis, Mo.) for 4 h at 37° C. under 5% CO2. Resofurin fluorescence (RFU) was measured as indicated above. Percentage of toxicity on cells was calculated as follows: Cytotoxicity (%)=(RFUDMSO−RFUBlank)−(RFUcompound−RFUblank)/(RFUDMSO−RFUBlank)×100. Percentage of cytotoxicity was plotted against compound concentration and the minimal toxic concentration (MTC50) was determined by non-linear regression analysis as the lowest compound concentration where fifty percent toxicity was observed on the corresponding cell line.
(§2) To address the issue of toxicity, compound 133 was tested on a panel of seven cell lines derived from different body tissue. Cells were incubated with increasing amounts of compound and cell viability was assessed with resazurin after 5 days of co-incubation. Percentage of cytotoxicity was determined by taking as a reference the resofurin fluorescence measured by DMSO containing wells. The concentration where fifty percent of the cells died was defined as the Minimal Toxic Concentration (MTC50).

[6] = test system: Acinetobacter baumannii, Escherichia coli, Enterobacter cloacae, E. aerogenes, Klebsiella oxytoca, Pseudomonas aeruginosa, Salmonella enteridis, Vibrio mimicus; assay: Antimicrobial spectrum on clinical isolates, Gram-negative; assay type: cell-based, Gram-negative bacteria
M. tuberculosis H37Ra = assay: MIC on laboratory strain, in vitro bacterial growth assay; assay type: cell-based; details: Mycobacterium tuberculosis
M. tuberculosis H37Rv [7] = assay: as above; assay type: cell-based; details: Mycobacterium tuberculosis
[8] = test system: M. tuberculosis clinical isolates; assay type: cell-based, Mycobacterium tuberculosis
BCG Pasteur-Tokyo = assay: microbe, parasite or virus in culture; assay type: cell-based; details: Mycobacterium tuberculosis variant bovis BCG
Jurkat -T-cell = assay: Cytotoxicity assay (resazurin, 5 days); assay type: cell-based
Description: as §1, §2

BJ- Skin = assay: Cytotoxicity assay (resazurin, 5 days); assay type: cell-based
Description: as §1, §2

HepG2-Hepatocytes = assay: Cytotoxicity assay (resazurin, 5 days); assay type: cell-based; details: HepG2, 5 days
Description: as §1, §2

HEK293- Kidney = assay: Cytotoxicity assay (resazurin, 5 days); assay type: cell-based; details: HEK293, 5 days
Description: as §1, §2

MRC5- Lung = assay: Cytotoxicity assay (resazurin, 5 days); assay type: cell-based; details: MRC5, 5 days
Description: as §1, §2

SK-N-SH -Brain = assay: Cytotoxicity assay (resazurin, 5 days); assay type: cell-based
Description: as §1, §2

THP-1 - Monocytes = assay: Cytotoxicity assay (resazurin, 5 days); assay type: cell-based; details: THP-1, 5 days
Description: as §1, §2

[9] = test system: M. tuberculosis H37Rv in mouse macrophages; assay: CFU determination in infected mouse macrophages; assay type: cell-based, Mycobacterium tuberculosis; details: mouse cells, seven days after infection
[10] = test system: M. tuberculosis H37Rv-GFP; assay: in vitro; details: Mycobacterium tuberculosis
M. smegmatis mc^2 155 = assay: MIC on fast growing mycobacteria; assay type: cell-based, Mycobacterium smegmatis
[11] = test system: Primary human macrophages; assay: Cytotoxicity assay (resazurin, 5 days)
[12] = test system: Candida albicans, C. glabrata, C. parapsilosis; assay: Antimicrobial spectrum on clinical isolates, Fungi; assay type: cell-based
Primary BMDM = assay: Cytotoxicity assay (resazurin, 5 days)
[13] = test system: Staphylococcus aureus, S. epidermis, S. capitis, S. xylosus, Micrococcus luteus, Listeria innocua, Lactobacillus gallinarum, group G Streptococcus …; assay: Antimicrobial spectrum on clinical isolates, Gram-positive; assay type: cell-based, Gram-positive bacteria
[14] = test system: M. tuberculosis H37Rv-GFP inside Raw264.7 macrophages; assay: in vitro; details: mouse
C. striatum, C. jeikeium = assay: Antimicrobial spectrum on clinical isolates, Corynebacterium; assay type: cell-based
[15] = test system: M. tuberculosis H37Rv in human macrophages; assay type: cell-based, Mycobacterium tuberculosis
[16] = test system: M. tuberculosis in primary macrophages; assay type: cell-based, Mycobacterium tuberculosis

CNC(=O)c1c(Nc2ccc(F)c(Cl)c2)nc2c(OC)cccn2c1=O
melting point: 218 °C (dec.)

COc1cccn2c(=O)c(CO)c(Nc3ccc(F)c(F)c3)nc12
melting point: 231 °C (dec.)

Cn1cnc2ccc(Nc3nc4c(F)cccn4c(=O)c3CO)cc21
melting point: 209 °C (dec.)

COc1cccn2c(=O)c(Br)c(Nc3ccc4ncccc4c3)nc12
melting point: 248 to 249 °C

COC(=O)c1ccc(Nc2nc3c(OC)cccn3c(=O)c2CO)nc1
melting point: 231 to 232 °C (dec.)

NNC(=O)c1ccncc1 [INH, isoniazid]
MIC [1]: 0.1 µg/mL (≈ 0.729 µM) | MIC [2]: 0.1 µg/mL (≈ 0.729 µM) | Calculated MICs from the image based quantification of the infection ratio [3]: 0.16 ± 0.05 µg/mL | cells that appear to be infected [3]: 10%

COc1cccn2c(=O)c(CO)c(Nc3ccc4ncccc4c3)nc12 [compound 71, 3-(Hydroxymethyl)-9-methoxy-2-(quinolin-6-ylamino)-4H-pyrido[1,2-a]pyrimidin-4-one]
growth of M. tuberculosis (CFU) (M. tuberculosis H37Rv [4]; 0.04 to 20 μM, H37Rv, 21 days at 37° C.): strongly inhibited the growth of M. tuberculosis | bacteria killing activity (CFU) (M. tuberculosis H37Rv [4]; after 2 days of incubation): fast bacteria killing activity even at the lowest concentration

Cc1cccn2c(=O)c(C=O)c(Nc3cccc(Cl)c3)nc12 [compound 133, 2-(3-Chlorophenylamino)-9-methyl-4-oxo-4H-pyrido[1,2-a]pyrimidine-3-carbaldehyde]
cytotoxicity (Minimal Toxic Concentration, MTC50) [5]: > 100 µM | Antibacterial activity & Specificity [6]: NE (NE: No effect up to 100 μg/mL equivalent to 320 μM) | MIC (M. tuberculosis H37Ra): 2 µM (≈ 0.627 µg/mL) | MIC (M. tuberculosis H37Rv [7]): 2 µM (≈ 0.627 µg/mL) | Range of MICs for multiple strains (μM) ([8]; Drug Sensitive, Tissue, 2 isolates): 2.5-5^ μM | Range of MICs for multiple strains ([8]; INH^R RIF^R Strep^R, Sputum, 3 isolates): 0.3 to 1.2 µM | Range of MICs for multiple strains ([8]; INH^R RIF^R Strep^R, Tissue, 1 isolate): 1.2 µM | Range of MICs for multiple strains ([8]; MDR, Sputum, 3 isolates): 0.3 to 1.2 µM | Range of MICs for multiple strains ([8]; MDR, Tissue, 1 isolate): 1.2 µM | Range of MICs for multiple strains ([8]; RIF^R, Sputum, 1 isolate): 2.5 µM | Range of MICs for multiple strains ([8]; RIF^R, Tissue, 1 isolate): 1.2 µM | Range of MICs for multiple strains ([8]; XDR, Sputum, 4 isolates): 0.6 to 2.5 µM | Range of MICs for multiple strains (μM) ([8]; XDR, Tissue, 5 isolates): 0.3-5^ μM | MIC (BCG Pasteur-Tokyo): 2 µM (≈ 0.627 µg/mL) | Range of MTC50 (Jurkat -T-cell): >100 µM | Range of MTC50 (BJ- Skin): >100 µM | Range of MTC50 (HepG2-Hepatocytes): >100 µM | Range of MTC50 (HEK293- Kidney): >100 µM | Range of MTC50 (MRC5- Lung): >100 µM | Range of MTC50 (SK-N-SH -Brain): >100 µM | Range of MTC50 (THP-1 - Monocytes): >100 µM | decrease in the number of CFUs [9]: ten-fold decrease in the number of CFUs | selectivity ratio [10]: > 50 | MIC (M. smegmatis mc^2 155): no effect | MIC (M. smegmatis mc^2 155; Mycolicibacterium smegmatis, MC^2155, read-out: MIC): > 100 µM | Range of MTC50 [11]: >100 µM | Antibacterial activity & Specificity [12]: NE (NE: No effect up to 100 μg/mL equivalent to 320 μM) | Range of MTC50 (Primary BMDM): >100 µM | Antibacterial activity & Specificity [13]: NE (NE: No effect up to 100 μg/mL equivalent to 320 μM) | selectivity ratio [14]: > 50 | Antibacterial activity & Specificity (C. striatum, C. jeikeium): NE (NE: No effect up to 100 μg/mL equivalent to 320 μM) | decrease in the number of CFUs [15]: ten-fold decrease in the number of CFUs

Cc1cccn2c(=O)c(CO)c(Nc3cccc(Cl)c3)nc12 [compound 232, 2-(3-Chlorophenylamino)-3-(hydroxymethyl)-9-methyl-4H-pyrido[1,2-a]pyrimidin-4-one]
decrease in the number of CFUs [9]: ten-fold decrease in the number of CFUs | bacterial load and host cell abundance [16]: harbored fewer bacteria compared to DMSO control and were more abundant | decrease in the number of CFUs [15]: ten-fold decrease in the number of CFUs

CO[C@H]1/C=C/O[C@@]2(C)Oc3c(C)c(O)c4c(O)c(c(/C=N/N5CCN(C)CC5)c(O)c4c3C2=O)NC(=O)/C(C)=C\C=C\[C@H](C)[C@H](O)[C@@H](C)[C@@H](O)[C@@H](C)[C@H](OC(C)=O)[C@@H]1C [rifampin]
Calculated MICs from the image based quantification of the infection ratio [3]: 2.4 ± 1.3 µg/mL | cells that appear to be infected [3]: 10%
